In patent US20170190671A1, “BIS(ARYL)CATECHOL DERIVATIVES AS HERBICIDES” (E I DU PONT DE NEMOURS AND COMPANY, priority 2014, published 2017):

Legend:
Format in all cases: in vivo
[1] = tested on: large (Lg) crabgrass (Digitaria sanguinalis); assay: Test A postemergence; conditions: 0 to 100 scale
Outline: (§1)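 Compounds in non-phytotoxic solvent with surfactant applied as soil spray preemergence, or postemergence to plants 2-10 cm at one- to two-leaf stage, in loam/sand. After approximately 10 days in greenhouse, injury rated visually versus untreated controls, 0 (no effect) to 100 (complete control).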

[2] = tested on: morningglory (Ipomoea spp.); assay: Test A postemergence; conditions: 0 to 100 scale
Outline: as §1

[3] = tested on: velvetleaf (Abutilon theophrasti); assay: Test A postemergence; conditions: 0 to 100 scale
Outline: as §1

[4] = tested on: Russian thistle (Salsola kali); assay: Test D preemergence; conditions: scale 0 to 100
From the text: (§2) Seeds of plant species selected from bluegrass (annual bluegrass, Poa annua), blackgrass (Alopecurus myosuroides), canarygrass (Phalaris minor), chickweed (common chickweed, Stellaria media), cutleaf geranium (Geranium dissectum), galium (catchweed bedstraw, Galium aparine), downy bromegrass (Bromus tectorum), field poppy (Papaver rhoeas), field violet (Viola arvensis), green foxtail (Setaria viridis), deadnettle (henbit deadnettle, Lamium amplexicaule), Italian ryegrass (Lolium multiflorum), kochia (Kochia scoparia), lambsquarters (Chenopodium album), oilseed rape (Brassica napus), pigweed (Amaranthus retroflexus), chamomile (scentless chamomile, Matricaria inodora), Russian thistle (Salsola kali), speedwell (bird's-eye speedwell, Veronica persica), spring barley (Hordeum vulgare), spring wheat (Triticum aestivum), wild buckwheat (Polygonum convolvulus), wild mustard (Sinapis arvensis), wild oat (Avenafatua), wild radish (Raphanus raphanistrum), windgrass (Apera spica-venti), winter barley (Hordeum vulgare), and winter wheat (Triticum aestivum) were planted into a silt loam soil and treated preemergence with test chemicals formulated in a non-phytotoxic solvent mixture which included a surfactant.
(§3) At the same time, these species were planted in pots containing Redi-Earth® planting medium (Scotts Company, 14111 Scottslawn Road, Marysville, Ohio 43041) comprising spaghnum peat moss, vermiculite, wetting agent and starter nutrients and treated with postemergence applications of the test chemicals formulated in the same manner. Plants ranged in height from 2 to 18 cm (1- to 4-leaf stage). Treated plants and controls were maintained in a controlled growth environment for 14 to 21 days after which time all species were compared to controls and visually evaluated. Plant response ratings, summarized in Table D, are based on a scale of 0 to 100 where 0 is no effect and 100 is complete control. A dash (-) response means no test result.

[5] = tested on: bluegrass (annual bluegrass, Poa annua); assay: Test D preemergence; conditions: scale 0 to 100
From the text: as §2, §3

[6] = tested on: chickweed (common chickweed, Stellaria media); assay: Test D preemergence; conditions: scale 0 to 100
From the text: as §2, §3

[7] = tested on: cutleaf geranium (Geranium dissectum); assay: Test D preemergence; conditions: scale 0 to 100
From the text: as §2, §3

[8] = tested on: downy bromegrass (Bromus tectorum); assay: Test D preemergence; conditions: scale 0 to 100
From the text: as §2, §3

[9] = tested on: field poppy (Papaver rhoeas); assay: Test D preemergence; conditions: scale 0 to 100
From the text: as §2, §3

[10] = tested on: field violet (Viola arvensis); assay: Test D preemergence; conditions: scale 0 to 100
From the text: as §2, §3

[11] = tested on: green foxtail (Setaria viridis); assay: Test D preemergence; conditions: scale 0 to 100
From the text: as §2, §3

[12] = tested on: lambsquarters (Chenopodium album); assay: Test D preemergence; conditions: scale 0 to 100
From the text: as §2, §3

[13] = tested on: oilseed rape (Brassica napus); assay: Test D preemergence; conditions: scale 0 to 100
From the text: as §2, §3

[14] = tested on: pigweed (Amaranthus retroflexus); assay: Test D preemergence; conditions: scale 0 to 100
From the text: as §2, §3

[15] = tested on: spring barley (Hordeum vulgare); assay: Test D preemergence; conditions: scale 0 to 100
From the text: as §2, §3

[16] = tested on: wild buckwheat (Polygonum convolvulus); assay: Test D preemergence; conditions: scale 0 to 100
From the text: as §2, §3

[17] = tested on: windgrass (Apera spica-venti); assay: Test D preemergence; conditions: scale 0 to 100
From the text: as §2, §3

[18] = tested on: winter barley (Hordeum vulgare); assay: Test D preemergence; conditions: scale 0 to 100
From the text: as §2, §3

Clc1cnc(Oc2cccc(Br)c2Oc2ncc(Cl)cn2)nc1 [Compound 19, 2,2′-[[3-bromo-1,2-phenylene]bis(oxy)]bis[5-chloropyrimidine]]
Plant response rating, Crabgrass, Large ([1]; 125 g ai/ha): 70 | Plant response rating, Crabgrass, Large ([1]; 500 g ai/ha): 90 | Plant response rating, Morningglory ([2]; 125 g ai/ha): 70 | Plant response rating, Morningglory ([2]; 500 g ai/ha): 100 | Plant response rating, Velvetleaf ([3]; 125 g ai/ha): 100 | Plant response rating, Velvetleaf ([3]; 500 g ai/ha): 100

Fc1cccc(Oc2ncc(Cl)cn2)c1Oc1ncc(Cl)cn1 [Compound 21, 2,2′-[[3-fluoro-1,2-phenylene]bis(oxy)]bis[5-chloropyrimidine]]
Plant response rating, Crabgrass, Large ([1]; 125 g ai/ha): 80 | Plant response rating, Crabgrass, Large ([1]; 500 g ai/ha): 90 | Plant response rating, Morningglory ([2]; 125 g ai/ha): 90 | Plant response rating, Morningglory ([2]; 500 g ai/ha): 100 | Plant response rating, Velvetleaf ([3]; 125 g ai/ha): 90 | Plant response rating, Velvetleaf ([3]; 500 g ai/ha): 100

FC(F)(F)c1cnc(Oc2c(Br)cccc2Oc2ncc(Cl)cn2)nc1 [Compound 24]
Plant response rating, Russian Thistle ([4]; 16 g ai/ha): 0 | Plant response rating, Russian Thistle ([4]; 31 g ai/ha): 0 | Plant response rating, Russian Thistle ([4]; 62 g ai/ha): 35 | Plant response rating, Russian Thistle ([4]; 125 g ai/ha): 80 | Plant response rating, Bluegrass ([5]; 16 g ai/ha): 15 | Plant response rating, Bluegrass ([5]; 31 g ai/ha): 20 | Plant response rating, Bluegrass ([5]; 62 g ai/ha): 25 | Plant response rating, Bluegrass ([5]; 125 g ai/ha): 35 | Plant response rating, Chickweed ([6]; 16 g ai/ha): 10 | Plant response rating, Chickweed ([6]; 31 g ai/ha): 100 | Plant response rating, Chickweed ([6]; 62 g ai/ha): 100 | Plant response rating, Chickweed ([6]; 125 g ai/ha): 100 | Plant response rating, Geranium, Cutleaf ([7]; 16 g ai/ha): 75 | Plant response rating, Geranium, Cutleaf ([7]; 31 g ai/ha): 75 | Plant response rating, Geranium, Cutleaf ([7]; 62 g ai/ha): 90 | Plant response rating, Geranium, Cutleaf ([7]; 125 g ai/ha): 100 | Plant response rating, Bromegrass, Downy ([8]; 16 g ai/ha): 20 | Plant response rating, Bromegrass, Downy ([8]; 31 g ai/ha): 35 | Plant response rating, Bromegrass, Downy ([8]; 62 g ai/ha): 35 | Plant response rating, Bromegrass, Downy ([8]; 125 g ai/ha): 45 | Plant response rating, Field Poppy ([9]; 16 g ai/ha): 75 | Plant response rating, Field Poppy ([9]; 31 g ai/ha): 100 | Plant response rating, Field Poppy ([9]; 62 g ai/ha): 100 | Plant response rating, Field Poppy ([9]; 125 g ai/ha): 100 | Plant response rating, Field Violet ([10]; 16 g ai/ha): 20 | Plant response rating, Field Violet ([10]; 31 g ai/ha): 20 | Plant response rating, Field Violet ([10]; 62 g ai/ha): 75 | Plant response rating, Field Violet ([10]; 125 g ai/ha): 100 | Plant response rating, Foxtail, Green ([11]; 16 g ai/ha): 10 | Plant response rating, Foxtail, Green ([11]; 31 g ai/ha): 35 | Plant response rating, Foxtail, Green ([11]; 62 g ai/ha): 75 | Plant response rating, Foxtail, Green ([11]; 125 g ai/ha): 85 | Plant response rating, Lambsquarters ([12]; 16 g ai/ha): 100 | Plant response rating, Lambsquarters ([12]; 31 g ai/ha): 100 | Plant response rating, Lambsquarters ([12]; 62 g ai/ha): 100 | Plant response rating, Lambsquarters ([12]; 125 g ai/ha): 100 | Plant response rating, Oilseed Rape ([13]; 16 g ai/ha): 0 | Plant response rating, Oilseed Rape ([13]; 31 g ai/ha): 15 | Plant response rating, Oilseed Rape ([13]; 62 g ai/ha): 20 | Plant response rating, Oilseed Rape ([13]; 125 g ai/ha): 80 | Plant response rating, Pigweed ([14]; 16 g ai/ha): 60 | Plant response rating, Pigweed ([14]; 31 g ai/ha): 100 | Plant response rating, Pigweed ([14]; 62 g ai/ha): 100 | Plant response rating, Pigweed ([14]; 125 g ai/ha): 100 | Plant response rating, Barley, Spring ([15]; 16 g ai/ha): 0 | Plant response rating, Barley, Spring ([15]; 31 g ai/ha): 20 | Plant response rating, Barley, Spring ([15]; 62 g ai/ha): 30 | Plant response rating, Barley, Spring ([15]; 125 g ai/ha): 85 | Plant response rating, Buckwheat, Wild ([16]; 16 g ai/ha): 10 | Plant response rating, Buckwheat, Wild ([16]; 62 g ai/ha): 20 | Plant response rating, Buckwheat, Wild ([16]; 125 g ai/ha): 100 | Plant response rating, Windgrass ([17]; 16 g ai/ha): 5 | Plant response rating, Windgrass ([17]; 31 g ai/ha): 15 | Plant response rating, Windgrass ([17]; 62 g ai/ha): 25 | Plant response rating, Windgrass ([17]; 125 g ai/ha): 85 | Plant response rating, Barley, Winter ([18]; 16 g ai/ha): 10 | Plant response rating, Barley, Winter ([18]; 31 g ai/ha): 15 | Plant response rating, Barley, Winter ([18]; 62 g ai/ha): 25 | Plant response rating, Barley, Winter ([18]; 125 g ai/ha): 70
